# Experimental data published in article PMC3961306, “Comparison of the Cancer Gene Targeting and Biochemical Selectivities of All Targeted Kinase Inhibitors Approved for Clinical Use” (PLoS ONE, 2014).
# Key:
# Test in all cases: Kinase profiling in a biochemical assay panel (mobility shift assays and ELISA), %-inhibition at 1 μM; selectivity entropy
# [1] = target: T1, panel of more than 300 wild-type and mutant kinases (313 kinase panel) (Homo sapiens, UniProt O00141); details: kinase SGK; 1 μM
# T1 sequence (O00141 1-431): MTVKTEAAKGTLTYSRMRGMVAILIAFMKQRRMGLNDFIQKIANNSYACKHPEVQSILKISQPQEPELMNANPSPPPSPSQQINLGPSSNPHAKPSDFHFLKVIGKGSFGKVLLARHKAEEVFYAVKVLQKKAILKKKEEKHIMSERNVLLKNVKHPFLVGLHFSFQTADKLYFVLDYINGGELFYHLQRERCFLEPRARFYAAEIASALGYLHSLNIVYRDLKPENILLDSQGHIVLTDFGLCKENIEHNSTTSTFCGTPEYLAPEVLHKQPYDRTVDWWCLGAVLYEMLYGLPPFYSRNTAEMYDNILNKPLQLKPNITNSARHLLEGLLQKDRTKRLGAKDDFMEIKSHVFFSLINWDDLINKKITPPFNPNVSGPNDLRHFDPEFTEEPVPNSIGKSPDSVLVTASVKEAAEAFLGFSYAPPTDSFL
# [2] = target: panel of more than 300 wild-type and mutant kinases (313 kinase panel) (Homo sapiens, UniProt O00311); details: kinase CDC7/ASK; 1 μM compound
# [3] = target: panel of more than 300 wild-type and mutant kinases (313 kinase panel) (Homo sapiens, UniProt O94804); details: kinase LOK; compound at 1 μM
# [4] = target: panel of more than 300 wild-type and mutant kinases (313 kinase panel) (Homo sapiens, UniProt P31751); details: kinase AKT2; 1 μM compound
# [5] = target: panel of more than 300 wild-type and mutant kinases (313 kinase panel) (Homo sapiens, UniProt P49137); details: kinase MAPKAPK2; compound at 1 μM
# [6] = target: T2, panel of more than 300 wild-type and mutant kinases (313 kinase panel) (Homo sapiens, UniProt P51813); details: kinase BMX; 1 μM compound
# T2 sequence (P51813 1-675): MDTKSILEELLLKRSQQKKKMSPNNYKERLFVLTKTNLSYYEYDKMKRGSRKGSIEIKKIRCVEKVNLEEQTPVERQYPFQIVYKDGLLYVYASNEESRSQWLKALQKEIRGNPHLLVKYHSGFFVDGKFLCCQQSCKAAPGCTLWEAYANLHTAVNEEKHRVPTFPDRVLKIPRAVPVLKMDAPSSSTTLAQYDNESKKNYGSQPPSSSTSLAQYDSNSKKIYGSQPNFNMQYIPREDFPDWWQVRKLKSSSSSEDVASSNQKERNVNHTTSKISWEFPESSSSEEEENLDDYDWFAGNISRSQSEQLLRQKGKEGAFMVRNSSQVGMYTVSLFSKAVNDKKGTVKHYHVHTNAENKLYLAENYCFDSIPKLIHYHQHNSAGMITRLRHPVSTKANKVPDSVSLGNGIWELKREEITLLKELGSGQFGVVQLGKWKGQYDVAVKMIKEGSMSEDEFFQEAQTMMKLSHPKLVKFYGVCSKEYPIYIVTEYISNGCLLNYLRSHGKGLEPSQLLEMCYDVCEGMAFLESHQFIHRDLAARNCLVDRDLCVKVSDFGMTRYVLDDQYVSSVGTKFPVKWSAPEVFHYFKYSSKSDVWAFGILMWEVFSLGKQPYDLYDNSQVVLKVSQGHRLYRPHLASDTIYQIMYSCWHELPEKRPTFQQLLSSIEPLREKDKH
# [7] = target: panel of more than 300 wild-type and mutant kinases (313 kinase panel) (Homo sapiens, UniProt Q00534); details: kinase CDK6/CycD3; 1 μM compound
# [8] = target: T3, panel of more than 300 wild-type and mutant kinases (313 kinase panel) (Homo sapiens, UniProt Q15831)
# T3 sequence (Q15831 1-433): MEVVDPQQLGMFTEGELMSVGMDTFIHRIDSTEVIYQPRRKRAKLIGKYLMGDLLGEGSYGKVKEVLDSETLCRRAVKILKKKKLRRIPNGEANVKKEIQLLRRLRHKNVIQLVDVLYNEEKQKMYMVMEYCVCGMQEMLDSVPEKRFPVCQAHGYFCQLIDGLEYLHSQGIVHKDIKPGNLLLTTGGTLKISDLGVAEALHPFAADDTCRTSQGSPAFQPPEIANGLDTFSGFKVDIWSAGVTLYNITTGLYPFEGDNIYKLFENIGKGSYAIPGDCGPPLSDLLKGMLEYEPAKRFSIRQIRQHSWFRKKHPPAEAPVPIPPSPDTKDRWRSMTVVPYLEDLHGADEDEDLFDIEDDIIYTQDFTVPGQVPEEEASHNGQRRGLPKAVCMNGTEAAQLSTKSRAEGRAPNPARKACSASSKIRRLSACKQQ
# [9] = target: T4, panel of more than 300 wild-type and mutant kinases (313 kinase panel) (Homo sapiens, UniProt Q96PN8); details: kinase TSSK3; compound at 1 μM
# T4 sequence (Q96PN8 1-268): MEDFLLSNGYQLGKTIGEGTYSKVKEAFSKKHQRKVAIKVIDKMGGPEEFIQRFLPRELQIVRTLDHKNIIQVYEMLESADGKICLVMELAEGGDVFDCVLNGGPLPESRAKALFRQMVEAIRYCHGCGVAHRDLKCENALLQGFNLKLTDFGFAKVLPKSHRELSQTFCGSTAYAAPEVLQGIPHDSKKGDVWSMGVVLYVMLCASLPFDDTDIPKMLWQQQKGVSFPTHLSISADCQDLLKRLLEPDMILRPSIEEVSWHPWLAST
# [10] = target: panel of more than 300 wild-type and mutant kinases (313 kinase panel) (Homo sapiens, UniProt Q9P289); details: kinase MST4; 1 μM
# Sequence of panel of more than 300 wild-type and mutant kinases (313 kinase panel) (Homo sapiens, UniProt Q9P289) (Q9P289 whole entry, change not shown): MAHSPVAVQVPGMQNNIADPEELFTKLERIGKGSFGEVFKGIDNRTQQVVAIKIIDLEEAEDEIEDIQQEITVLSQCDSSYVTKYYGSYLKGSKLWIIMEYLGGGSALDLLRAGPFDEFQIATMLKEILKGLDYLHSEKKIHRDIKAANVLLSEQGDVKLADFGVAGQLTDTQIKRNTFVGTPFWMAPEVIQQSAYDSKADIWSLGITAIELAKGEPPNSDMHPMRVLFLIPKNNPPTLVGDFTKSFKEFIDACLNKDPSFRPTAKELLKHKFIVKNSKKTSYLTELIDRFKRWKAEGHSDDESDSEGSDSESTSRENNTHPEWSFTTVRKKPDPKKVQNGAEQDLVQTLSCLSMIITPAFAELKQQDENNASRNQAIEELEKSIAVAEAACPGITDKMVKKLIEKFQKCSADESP
# Sequence of panel of more than 300 wild-type and mutant kinases (313 kinase panel) (Homo sapiens, UniProt P49137) (P49137 whole entry, change not shown): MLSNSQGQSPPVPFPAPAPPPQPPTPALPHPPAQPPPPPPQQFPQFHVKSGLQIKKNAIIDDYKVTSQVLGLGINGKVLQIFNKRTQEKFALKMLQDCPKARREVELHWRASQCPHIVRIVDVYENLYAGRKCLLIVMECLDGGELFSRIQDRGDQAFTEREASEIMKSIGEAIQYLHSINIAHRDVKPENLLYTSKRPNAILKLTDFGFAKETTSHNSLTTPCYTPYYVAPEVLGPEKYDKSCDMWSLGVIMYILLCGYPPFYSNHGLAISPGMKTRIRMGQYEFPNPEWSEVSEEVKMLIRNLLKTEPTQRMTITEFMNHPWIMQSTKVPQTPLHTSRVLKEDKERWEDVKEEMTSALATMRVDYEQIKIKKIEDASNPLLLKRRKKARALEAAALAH
# Sequence of panel of more than 300 wild-type and mutant kinases (313 kinase panel) (Homo sapiens, UniProt P31751) (P31751 whole entry, change not shown): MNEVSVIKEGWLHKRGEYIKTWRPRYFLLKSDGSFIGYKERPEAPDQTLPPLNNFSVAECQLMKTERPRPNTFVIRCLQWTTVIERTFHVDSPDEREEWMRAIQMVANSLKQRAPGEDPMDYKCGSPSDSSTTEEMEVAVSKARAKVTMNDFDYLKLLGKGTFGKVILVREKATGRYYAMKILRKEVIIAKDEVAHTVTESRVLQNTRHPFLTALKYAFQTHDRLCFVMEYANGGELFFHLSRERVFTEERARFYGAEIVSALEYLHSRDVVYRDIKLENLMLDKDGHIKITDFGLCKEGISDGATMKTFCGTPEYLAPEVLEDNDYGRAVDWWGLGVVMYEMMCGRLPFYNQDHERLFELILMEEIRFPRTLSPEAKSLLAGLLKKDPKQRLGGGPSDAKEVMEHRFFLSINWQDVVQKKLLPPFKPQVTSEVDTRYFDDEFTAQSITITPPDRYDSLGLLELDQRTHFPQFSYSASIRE
# Sequence of panel of more than 300 wild-type and mutant kinases (313 kinase panel) (Homo sapiens, UniProt O94804) (O94804 whole entry, change not shown): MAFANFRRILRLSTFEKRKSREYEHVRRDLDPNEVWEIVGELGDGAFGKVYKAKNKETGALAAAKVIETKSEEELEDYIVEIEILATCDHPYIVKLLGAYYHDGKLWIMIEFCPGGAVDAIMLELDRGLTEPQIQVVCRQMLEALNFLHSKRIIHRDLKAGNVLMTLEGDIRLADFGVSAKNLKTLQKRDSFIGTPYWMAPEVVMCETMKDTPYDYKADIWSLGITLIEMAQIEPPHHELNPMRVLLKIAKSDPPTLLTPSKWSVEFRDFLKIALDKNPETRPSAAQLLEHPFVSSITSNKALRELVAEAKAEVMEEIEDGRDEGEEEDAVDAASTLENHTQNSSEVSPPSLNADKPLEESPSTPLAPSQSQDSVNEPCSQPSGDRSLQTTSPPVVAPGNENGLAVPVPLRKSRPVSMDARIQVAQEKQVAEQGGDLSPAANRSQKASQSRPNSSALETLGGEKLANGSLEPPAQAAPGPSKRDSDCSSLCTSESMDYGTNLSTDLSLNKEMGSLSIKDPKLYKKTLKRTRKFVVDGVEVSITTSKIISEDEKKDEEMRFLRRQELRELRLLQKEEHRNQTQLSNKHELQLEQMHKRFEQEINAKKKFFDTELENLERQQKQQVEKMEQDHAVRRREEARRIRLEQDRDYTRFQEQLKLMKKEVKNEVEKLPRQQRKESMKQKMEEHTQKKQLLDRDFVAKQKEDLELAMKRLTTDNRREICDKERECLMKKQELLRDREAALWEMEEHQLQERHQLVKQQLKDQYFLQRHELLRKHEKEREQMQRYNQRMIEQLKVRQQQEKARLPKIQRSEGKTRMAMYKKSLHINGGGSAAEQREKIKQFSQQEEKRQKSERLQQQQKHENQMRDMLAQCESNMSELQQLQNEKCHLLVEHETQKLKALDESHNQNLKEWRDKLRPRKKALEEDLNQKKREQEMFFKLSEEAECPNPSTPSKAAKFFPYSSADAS
SMILES,%-inhibition of SGK [1] [%],"%-inhibition, CDC7/ASK [2] [%]",%-inhibition of LOK [3] [%],"%-inhibition, AKT2 [4] [%]",%-inhibition of MAPKAPK2 [5] [%],"%-inhibition, BMX [6] [%]","%-inhibition, CDK6/CycD3 [7] [%]","%-inhibition of LKB1 ([8]; kinase LKB1, compound at 1 μM) [%]",%-inhibition of TSSK3 [9] [%],%-inhibition of MST4 [10] [%],%-inhibition of LKB1 ([8]; 1 µM) [%]
Cc1ccc(Nc2nccc(N(C)c3ccc4c(C)n(C)nc4c3)n2)cc1S(N)(=O)=O [pazopanib],-1.12,-3.46,70,-2,-2.44,24,9,28,4.41,-3.23,–
N#CC[C@H](C1CCCC1)n1cc(-c2ncnc3[nH]ccc23)cn1 [ruxolitinib],-2.44,5.36,3.51,-3.68,-18,6.6,-6,–,-3,-3,0.546
CO[C@H]1C[C@@H]2CC[C@@H](C)[C@@](O)(O2)C(=O)C(=O)N2CCCC[C@H]2C(=O)O[C@H]([C@H](C)C[C@@H]2CC[C@@H](OCCO)[C@H](OC)C2)CC(=O)[C@H](C)/C=C(\C)[C@@H](O)[C@@H](OC)C(=O)[C@H](C)C[C@H](C)/C=C/C=C/C=C/1C [everolimus],-6.59,-6,-9,-3.78,-18,-5.3,-3,-9,-3,-5.58,–
CC(=O)Nc1cccc(-n2c(=O)n(C3CC3)c(=O)c3c(Nc4ccc(I)cc4F)n(C)c(=O)c(C)c32)c1 [trametinib],0.217,-8,12,-8,-0.335,-3.22,-4.23,2.38,-8,-2.23,–
CO[C@H]1C[C@@H]2CC[C@@H](C)[C@@](O)(O2)C(=O)C(=O)N2CCCC[C@H]2C(=O)O[C@H]([C@H](C)C[C@@H]2CC[C@@H](OC(=O)C(C)(CO)CO)[C@H](OC)C2)CC(=O)[C@H](C)/C=C(\C)[C@@H](O)[C@@H](OC)C(=O)[C@H](C)C[C@H](C)/C=C/C=C/C=C/1C [temsirolimus],-3.17,-6,-5,-1.77,-17,-7,-3.18,-6.57,-2.63,-3.42,–
